Measurements: patent US8404664B2, “Phosphonated Rifamycins and uses thereof for the prevention and treatment of bone and joint infections” (Targanta Therapeutics, Inc., priority 2005, dated 2013)
Converted amounts (≈) assume the structure as drawn. “And” between values parts separate entries of the source, which are not always exact repeats. Identical values can stand only once.

How the values were obtained:
S. aureus ATCC 13709 [1] = assay: Antibacterial susceptibility (MIC) in the presence of serum; format: cell-based; details: for MIC: Staphylococcus aureus, ATCC13709, 18 h
Experimental: (§1) Susceptibility of S. aureus strains to the known antibiotics and synthesized compounds was determined by following the guidelines set by NCCLS (M26-A). Compounds were diluted two-fold serially in DMSO and transferred to cation-adjusted Mueller Hinton broth (CAMHB; Becton Dickinson). 50 μL of compounds diluted in CAMHB was mixed with 100 μL of bacteria diluted in CAMHB in 96-well microtiter plates. The final concentration of micro-organisms in the assay was 5×10^5 c.f.u. per mL and the final concentration of DMSO in the assay was 1.25%. Assays were set up in duplicate and incubated at 37° C. for 18 h. The lowest concentration of compound that inhibited visible growth was reported as the minimum inhibitory concentration (MIC).
Susceptibility testing experiments were also carried out in the presence of serum.
These experiments were carried out similar to the susceptibility testing with the following modifications. 75 μL of compounds diluted in CAMHB was mixed with 75 μL of bacteria diluted in 100% serum from any given source (commercial pooled mouse serum (MS) and human serum (HS), Equitech-Bio Inc.) or diluted in 8% purified human serum albumin (HSA) (Calbiochem). The final concentration of animal serum in the assay was 50% and the final concentration of purified human serum albumin in the assay was 4%; the concentrations of all other components were identical to those described for susceptibility testing.

[2] = tested on: S. aureus ATCC 43300 (Fluoroquinolone sensitive MRSA); assay: Antibacterial susceptibility (MIC), NCCLS broth microdilution; format: cell-based; details: for MIC: Staphylococcus aureus, read-out: Minimum inhibitory concentration, S. aureus ATCC 43300
Experimental: as §1

[3] = tested on: S. aureus BK85 (Fluoroquinolone resistant MRSA); assay: as above; format: cell-based; details: for MIC: Staphylococcus aureus, read-out: Minimum inhibitory concentration, S. aureus BK85
Experimental: as §1

S. aureus RN4220 = assay: as above; format: cell-based; details: CAMHB, 37° C., 18 h; for MIC: Staphylococcus aureus, RN4220, read-out: Minimum inhibitory concentration, S. aureus RN4220
Experimental: as §1

S. aureus ATCC 13709 [4] = assay: as above; format: cell-based; details: for MIC: Staphylococcus aureus, ATCC13709, read-out: Minimum inhibitory concentration, S. aureus ATCC 13709; for Antibacterial activity (in words, summary of Table 1): summary over the strains of Table 1
Experimental: as §1

[5] = tested on: S. aureus ATCC 13709 Novobiocin and Rifampicin resistant variant; assay: microbe, parasite or virus in culture; format: cell-based; details: for Minimum inhibitory concentration, S. aureus ATCC 13709 variant: Novobiocin and Rifampicin resistant variant
Experimental: as §1

[6] = tested on: E. coli LBB925 (tolC mutant); assay: Antibacterial susceptibility (MIC), NCCLS broth microdilution; format: cell-based; details: for MIC: Escherichia coli, read-out: Minimum inhibitory concentration, E. coli LBB925; for Minimum inhibitory concentration, E. coli LBB925: tolC mutant
[7] = Regeneration of drug from bone powder-bound prodrug; format: in vitro ADME
Experimental: Amounts of parent drug “regenerated” from the phosphonated prodrug were measured as follows. Washed bone powder-bound prodrugs from the above experiment were resuspended in 400 μL PBS+2% DMSO or in 400 μL 50% (v/v in PBS+2% DMSO) human or rat serum. The suspension was incubated overnight at 37° C., centrifuged at 13,000 rpm for 2 min and the supernatant was recovered. The amount of regenerated parent drug in the supernatant was determined by measurements using the microbiological assay that was previously described for the prodrugs themselves. The amount of prodrug was deduced from standard curves of known amounts of parent drug that were used as reference for each experiment.

[8] = tested on: S. aureus ATCC 13709 Novobiocin resistant mutant (bone infection); assay: Prophylactic efficacy in rat model of S. aureus bone infection; format: in vivo; details: rat tibia 24 h postinfection
Experimental: Specifically, a spontaneous Novobiocin resistant mutant strain of S. aureus ATCC 13709 (a clinical osteomyelitis isolate), was grown overnight at 37° C. in brain heart infusion broth (BHIB). After 16 h of growth, cells were subcultured into fresh BHIB and incubated for 4 to 5 h at 37° C. The cells were washed twice with phosphate-buffered saline (PBS) and resuspended in BHIB supplemented with 10% (vol./vol.) fetal bovine serum at a density of approximately 10^10 colony forming units (CFU)/ml (based upon turbidimetry). The suspension was aliquoted and a portion was used to check the CFU count. The culture was stored frozen (−80° C.) and was used without subculture. For use as an inoculum the culture was thawed, diluted in PBS and kept in an ice bath until it was used.
Animals were infected as described by O'Reilly et al. (Antimicrobial Agents and Chemotherapy (1992), 36(12): 2693-97) to generate the bone infection. Female CD rats (age, 57 to 70 days; n=5/group; Charles River, St-Constant, Canada) were anaesthetized by isofluorane before and during the surgery. Following complete induction of anesthesia, the rat was placed ventral side up and hair was shaved from the surgical site. The skin over the leg was cleaned and disinfected (proviodine-ethanol 70%). A longitudinal incision below the knee joint was made in the sagital plane. The incision was made over the bone below the “knee joint” (tibia head or condyle) but not completely extending to the ankle. A high speed drill fitted with a 2 mm bulb bit was used to drill a hole into the medullar cavity of the tibia. Rats were injected intra-tibially with 0.05 ml 5% sodium morrhuate (sclerosing agent) and then with 0.05 ml of S. aureus suspension (ca. 2×10^7 CFU/rat). The hole was sealed by applying a small amount of dry dental cement which immediately absorbs fluids and adheres to the site. The wound was closed using 3 metal skin clips. Moxifloxacin (as a positive control) was injected once at 10 mg/kg intravenously 1 h postinfection in saline, while the Rifamycin derived prodrugs (prepared in 0.9% saline) were injected at the dose indicated in Table 3 as a single intravenous bolus at different time points prior to the infection.
Infected rats were sacrificed by CO2 asphyxiation 24 h postinfection to monitor the bacterial CFU count. Infected tibiae were removed, dissected free of soft tissue, and weighed. The bones were ground, resuspended in 5 ml 0.9% NaCl, serially diluted and processed for quantitative cultures. For compounds 50, 68 and 81, 1 ml of the 0.9% NaCl solution was added to 50 mg of charcoal before serial dilutions. Treatment efficacy was measured in terms of Log viable bacteria (Log CFU per gram of bone). […] The limit of detection is 2 Log CFU. […] Differences were considered significant when the P value was <0.05 when comparing treated infected animals to the untreated infected ones. The doses used, the amount of time separating the treatment from the time of infection and the treatment outcomes are shown in Table 3.

[9] = read-out: Minimum inhibitory concentration, S. aureus ATCC 13709 + 50% Human Serum
[10] = read-out: Minimum inhibitory concentration, S. aureus ATCC 13709 + 50% Mouse Serum
[11] = read-out: Minimum inhibitory concentration, S. aureus ATCC 13709 + 50% Rat Serum

| SMILES | MIC (S. aureus ATCC 13709 [1]; [9]) [µg/mL] | MIC (S. aureus ATCC 13709 [1]; [10]) [µg/mL] | MIC (S. aureus ATCC 13709 [1]; [11]) [µg/mL] | MIC [2] [µg/mL] | MIC [3] [µg/mL] | MIC (S. aureus RN4220) [µg/mL] | MIC (S. aureus ATCC 13709 [4]) [µg/mL] | MIC [6] [µg/mL] | Impact of serum on the MICs (in words) (S. aureus ATCC 13709 [1]) | Minimum inhibitory concentration, S. aureus ATCC 13709 + 50% Human Serum (S. aureus ATCC 13709 [1]) [µg/mL] | Minimum inhibitory concentration, S. aureus ATCC 13709 + 50% Mouse Serum (S. aureus ATCC 13709 [1]) [µg/mL] | Minimum inhibitory concentration, S. aureus ATCC 13709 + 50% Rat Serum (S. aureus ATCC 13709 [1]) [µg/mL] | Minimum inhibitory concentration, S. aureus ATCC 43300 [2] [µg/mL] | Minimum inhibitory concentration, S. aureus BK85 [3] [µg/mL] | Minimum inhibitory concentration, S. aureus RN4220 (S. aureus RN4220) [µg/mL] | Minimum inhibitory concentration, S. aureus ATCC 13709 (S. aureus ATCC 13709 [4]) [µg/mL] | Antibacterial activity (in words, summary of Table 1) (S. aureus ATCC 13709 [4]) | Activity against the Rifampicin resistant variant of S. aureus ATCC13709 (in words) [5] | Minimum inhibitory concentration, S. aureus ATCC 13709 variant [5] [µg/mL] | Minimum inhibitory concentration, E. coli LBB925 [6] [µg/mL] | further results |
| --- | --- | --- | --- | --- | --- | --- | --- | --- | --- | --- | --- | --- | --- | --- | --- | --- | --- | --- | --- | --- | --- |
| CO[C@H]1/C=C/O[C@@]2(C)Oc3c(C)c(O)c4c(O)c(c(/C=N/N5CCN(C)CC5)c(O)c4c3C2=O)NC(=O)/C(C)=C\C=C\[C@H](C)[C@H](O)[C@@H](C)[C@@H](O)[C@@H](C)[C@H](OC(C)=O)[C@@H]1C [Rifampicin, reference compound] | 0.062 | 0.125 | 0.125 | 0.008 (≈ 9.72 nM) | 0.008 (≈ 9.72 nM) | 0.008 (≈ 9.72 nM) | 0.008 (≈ 9.72 nM) | 8 (≈ 9720 nM) |  |  |  |  |  |  |  |  |  |  |  |  | MIC ([5]; Staphylococcus aureus, ATCC13709, read-out: Minimum inhibitory concentration, S. aureus ATCC 13709 variant): > 128 µg/mL |
| CCN(CC)CC.CCN(CC)CC.CO[C@H]1/C=C/O[C@@]2(C)Oc3c(C)c(O)c4c(c3C2=O)C2=NC3(CCN(CC(C)C)CC3)NC2=C(NC(=O)/C(C)=C\C=C\[C@H](C)[C@H](OC(=O)CCC(=O)NC(P(=O)(O)O)P(=O)(O)O)[C@@H](C)[C@@H](O)[C@@H](C)[C@H](OC(C)=O)[C@@H]1C)C4=O [Compound 39, 21-O-(3-((bisphosphonomethyl)carbamoyl)propanoyl)-1′,4-didehydro-1-deoxy-1,4-dihydro-5′-(2-methylpropyl)-1-oxorifamycin XIV] |  |  |  |  |  |  |  |  | no impact | >128 | >128 | 64 | >128 | >128 | >128 | >128 | near complete loss of activity | complete lack of activity | >128 | 128 | Regeneration of parent drug once bound to bone (in words) [7]: not able to regenerate |
| CO[C@H]1/C=C/O[C@@]2(C)Oc3c(C)c(O)c4c(=O)c(c5oc6cc(N7CCN(CCO)CC7)cc(O)c6nc-5c4c3C2=O)NC(=O)/C(C)=C\C=C\[C@H](C)[C@H](O)[C@@H](C)[C@@H](O)[C@@H](C)[C@H](OC(C)=O)[C@@H]1C [Compound 56, 1′,4-Didehydro-1-deoxy-1,4-dihydro-3′-hydroxy-5′-[4-(2-hydroxyethyl)-1-piperazinyl]-1-oxorifamycin VIII] | 0.001 | 0.002 | 0.002 | 0.00025 (≈ 0.269 nM) |  | 0.00025 (≈ 0.269 nM) | 0.00025 (≈ 0.269 nM) | 8 (≈ 8610 nM) |  |  |  |  |  |  |  |  |  |  |  |  | Measured bacterial titer ([8]; single dose 20 mg/kg parent drug equivalent, 2 days prior to infection): 3.61 ± 1.57 Log CFU/g of bone |
| CO[C@H]1/C=C/O[C@@]2(C)Oc3c(C)c(O)c4c(=O)c(c5oc6cc(N7CCNCC7)cc(O)c6nc-5c4c3C2=O)NC(=O)/C(C)=C\C=C\[C@H](C)[C@H](O)[C@@H](C)[C@@H](O)[C@@H](C)[C@H](OC(C)=O)[C@@H]1C [Compound 69, 1′,4-Didehydro-1-deoxy-1,4-dihydro-3′-hydroxy-5′-[1-piperazinyl]-1-oxorifamycin VIII] | 0.0019 | 0.0019 | 0.0019 |  | 0.00024 (≈ 0.271 nM) |  | 0.00048 (≈ 0.542 nM) | 4 (≈ 4520 nM) |  |  |  |  |  |  |  |  |  |  |  |  |  |
| CCN(CC)CC.CCN(CC)CC.CO[C@H]1/C=C/O[C@@]2(C)Oc3c(C)c(O)c4c(c3C2=O)C2=NC3(CCN(CC(C)C)CC3)NC2=C(NC(=O)/C(C)=C\C=C\[C@H](C)[C@H](OC(=O)CCCOC(=O)CCC(=O)NC(P(=O)(O)O)P(=O)(O)O)[C@@H](C)[C@@H](O)[C@@H](C)[C@H](OC(C)=O)[C@@H]1C)C4=O [Compound 54, 21-O-(4-((3-(bisphosphonomethyl)carbamoyl)propanoyloxy)butanoyl)-1′,4-didehydro-1-deoxy-1,4-dihydro-5′-(2-methylpropyl)-1-oxorifamycin XIV] |  |  |  |  |  |  |  |  | no impact | >128 | >128 | >128 | 64 | 64 | 64 | 64 | near complete loss of activity | complete lack of activity | >128 | >128 |  |
| COc1c(N2C[C@@H]3CCCN[C@@H]3C2)c(F)cc2c(=O)c(C(=O)O)cn(C3CC3)c12 [Moxifloxacin, reference compound] |  |  |  |  |  |  |  |  |  |  |  |  |  |  |  |  |  |  |  |  | Measured bacterial titer, positive control ([8]; 10 mg/kg intravenously once, 1 h postinfection, 10 mg/kg): 2.36 ± 0.21 Log CFU/g of bone and 2.53 ± 0.39 Log CFU/g of bone and 2.59 ± 0.56 Log CFU/g of bone and 2.46 ± 0.52 Log CFU/g of bone and 2.56 ± 0.64 Log CFU/g of bone and 2.20 ± 0.33 Log CFU/g of bone and 2.32 ± 0.33 Log CFU/g of bone and 2.06 ± 0.04 Log CFU/g of bone |
